Data as given in patent US11679107B2 (Eisai R&D Management Co., Ltd., priority 2018, dated 2023).
Like-named read-outs stand apart in the source and are kept apart here.

Key:
[1] = system: NCI-H1568 cells (high MCL1); assay: Cell proliferation and viability, CellTiter-Glo, 72 hours; assay type: cell-based; details: for GI50: geometric mean
How it was run: (§1)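 Cells grown in RPMI-1640 with 10% FBS (Panc line with added insulin and FBS to 15%) were exposed to an 11-point half-log dilution series, typically 10 μM-100 pM, at 0.1% final DMSO. After incubation at 37° C, 5% CO2, ATP content was measured by luminescence and normalized to a time-zero plate and DMSO wells.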

[2] = system: Panc 05.04 cells (SF3b K700E mutant); assay: as above; assay type: cell-based; details: for GI50: geometric mean
How it was run: as §1

SF3b complexes = target: T1, SF3b complexes (Homo sapiens, UniProt O75533+Q7RTV0); assay: Scintillation proximity assay (SPA) with [3H]-labelled pladienolide probe; assay type: binding; details: SF3B1 (WT); geometric mean; read-out: SPA-ATS GMean IC50 (nM) SF3B1 (WT)
T1 construct: endogenous in cells; host or cells: Nuclear extracts; A HeLa S3 extract preparation is described for the in vitro splicing assay
How it was run: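 SF3b complexes captured from nuclear extracts on anti-SF3B1 antibody SPA beads; test compounds pre-incubated 30 min before 2.5 nM [3H]-pladienolide probe added, then 30 min incubation. Bound probe read by scintillation; values from non-linear regression of concentration–response curves.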

[3] = system: Ad2 variant pre-mRNAs spliced in HeLa S3 nuclear extracts; assay: In vitro splicing assay (IVS), RT-qPCR of spliced product; assay type: biochemical; details: for IC50: geometric mean; for Ratio Ad2.1/2.2: ratio of IVS IC50 Ad2.1 to Ad2.2
How it was run: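 Ad2 variant pre-mRNA (2 ng) with FTZΔi control RNA in HeLa S3 nuclear extract (8 μg) was pre-incubated with compound or DMSO for 15 min at 30 °C. Splicing ran 90 min at 30 °C after adding 0.5 mM ATP, creatine phosphate and MgCl2. Spliced product was quantified by TaqMan RT-qPCR, normalized to DMSO, and curve-fitted.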

[4] = NCI-H1568, 72 h, read-out: CTGlo-ATS GMean GI50 (nM) 72 h NCIH1568.1, NCIH1568.1 cells, 72 h
[5] = NCIH1568.1 cells, 72 h, −100% cidal, 0% static, 100% maximal growth
[6] = PANC0504.1 cells, 72 h, −100% cidal, 0% static, 100% maximal growth
[7] = Panc 05.04, 72 h, read-out: CTGlo-ATS GMean GI50 (nM) 72 h PANC0504.1, PANC0504.1 cells, 72 h
[8] = Ad2.1 pre-mRNA substrate, read-out: qPCR-IVS-ATS GMean IC50 (nM) Ad2.1
[9] = Ad2.2 pre-mRNA substrate, read-out: qPCR-IVS-ATS GMean IC50 (nM) Ad2.2
[10] = 72 h, NCIH1568.1, -100% = cidal, 0% = static, 100% = uninhibited growth
[11] = 72 h, PANC0504.1, -100% = cidal, 0% = static, 100% = uninhibited growth
[12] = NCI-H1568, 72 h, read-out: CTGlo-ATS GMean GI50 (nM) 72 h NCIH1568.1, 72 h, NCIH1568.1
[13] = Panc 05.04, 72 h, read-out: CTGlo-ATS GMean GI50 (nM) 72 h PANC0504.1, 72 h, PANC0504.1
[14] = NCI-H1568, read-out: CTGlo-ATS GMean GI50 (nM) 72 h NCIH1568.1, NCIH1568.1 cells, 72 h
[15] = Panc 05.04, read-out: CTGlo-ATS GMean GI50 (nM) 72 h PANC0504.1, PANC0504.1 cells, 72 h

Row | SMILES | GI50 [1, 4] [nM] | CTGlo-ATS Mean MinResponse % 72 h NCIH1568.1 [1, 5] [%] | CTGlo-ATS Mean MinResponse % 72 h PANC0504.1 [2, 6] [%] | GI50 [2, 7] [nM] | IC50 (SF3b complexes) [nM] | IC50 [3, 8] [nM] | IC50 [3, 9] [nM] | CTGlo-ATS Mean MinResponse % 72 h NCIH1568.1 [1, 10] [%] | GI50 ([1]; NCI-H1568, read-out: CTGlo-ATS GMean GI50 (nM) 72 h NCIH1568.1, 72 h, NCIH1568.1) [nM] | CTGlo-ATS Mean MinResponse % 72 h PANC0504.1 [2, 11] [%] | GI50 ([2]; Panc 05.04, read-out: CTGlo-ATS GMean GI50 (nM) 72 h PANC0504.1, 72 h, PANC0504.1) [nM] | Ratio Ad2.1/2.2 [3] | GI50 [1, 12] [nM] | GI50 [2, 13] [nM] | GI50 [1, 14] [nM] | GI50 [2, 15] [nM]
1 | C/C(=C\c1cc(F)cc(N2CC[C@@H](F)C2)c1)[C@H]1OC(=O)C[C@H](O)CC[C@H](C)[C@@H](OC(=O)N2CCN(C)CC2)/C=C/[C@@H]1C [Compound 14] | 14.1 | −65.049 | −91.489 | 19.6 | 2.72 | 584 | 54.7 | – | – | – | – | – | – | – | – | –
2 | C/C(=C\c1cc(F)cc(N2CCOCC2)c1)[C@H]1OC(=O)C[C@H](O)CC[C@H](C)[C@@H](OC(=O)N2CC[C@@H](F)C2)/C=C/[C@@H]1C [Compound 247, [(2S,3S,4E,6R,7S,10R)-2-[(E)-1-(3-fluoro-5-morpholin-4-ylphenyl)prop-1-en-2-yl]-10-hydroxy-3,7-dimethyl-12-oxo-1-oxacyclododec-4-en-6-yl] (3R)-3-fluoropyrrolidine-1-carboxylate] | – | – | – | – | 14.4 | 50.8 | 34.6 | −67.545 | 31.4 | −77.509 | 40.5 | 1.467 | – | – | – | –
3 | C/C(=C\c1cc(F)c2cnn(C)c2c1)[C@H]1OC(=O)C[C@H](O)CC[C@H](C)[C@@H](OC(=O)N2CCN(C)CC2)/C=C/[C@@H]1C [Compound 101] | 7.68 | −64.073 | −94.474 | 9.78 | 1.1 | 1810 | 4.13 | – | – | – | – | – | – | – | – | –
4 | C/C(=C\c1cnn(C)c1)[C@H]1OC(=O)C[C@H](O)CC[C@H](C)[C@@H](OC(=O)N2CCN(C)CC2)/C=C/[C@@H]1C [Compound 103] | > 10000 | 78.168 | 80.958 | > 10000 | 258 | > 25000 | 4260 | – | – | – | – | – | – | – | – | –
5 | C/C(=C\c1cc(F)cc(S(=O)(=O)N2CCCC2)c1)[C@H]1OC(=O)C[C@H](O)CC[C@H](C)[C@@H](OC(=O)N2CCN(C)CC2)/C=C/[C@@H]1C [Compound 197, [(2S,3S,4E,6R,7S,10R)-2-[(E)-1-(3-fluoro-5-pyrrolidin-1-ylsulfonylphenyl)prop-1-en-2-yl]-10-hydroxy-3,7-dimethyl-12-oxo-1-oxacyclododec-4-en-6-yl] 4-methylpiperazine-1-carboxylate] | – | – | – | – | 2.67 | 98.5 | 22.8 | −69.290 | – | −91.100 | – | 4.318 | 4.69 | 3.53 | – | –
6 | CNC(=O)Cn1ncc2c(F)cc(/C=C(\C)[C@H]3OC(=O)C[C@H](O)CC[C@H](C)[C@@H](OC(=O)N4CCN(C)CC4)/C=C/[C@@H]3C)cc21 [Compound 128] | – | −62.651 | −96.227 | – | 8.76 | 3350 | 18.1 | – | – | – | – | – | – | – | 25.7 | 44.2
7 | C/C(=C\c1ccc2nccn2c1)[C@H]1OC(=O)C[C@H](O)CC[C@H](C)[C@@H](OC(=O)N2CCN(C)CC2)/C=C/[C@@H]1C [Compound 88, [(2S,3S,4E,6R,7S,10R)-10-hydroxy-2-[(E)-1-imidazo[1,2-a]pyridin-6-ylprop-1-en-2-yl]-3,7-dimethyl-12-oxo-l-oxacyclododec-4-en-6-yl] 4-methylpiperazine-1-carboxylate] | 157 | −20.194 | −5.029 | 86.3 | 1.02 | > 25000 | 154 | – | – | – | – | – | – | – | – | –
8 | C/C(=C\c1cc(F)cc(N2CCOCC2)c1)[C@H]1OC(=O)C[C@H](O)CC[C@H](C)[C@@H](OC(=O)N(C)CCC#N)/C=C/[C@@H]1C [Compound 245, [(2S,3S,4E,6R,7S,10R)-2-[(E)-1-(3-fluoro-5-morpholin-4-ylphenyl)prop-1-en-2-yl]-10-hydroxy-3,7-dimethyl-12-oxo-1-oxacyclododec-4-en-6-yl] N-(2-cyanoethyl)-N-methylcarbamate] | – | – | – | – | 17.4 | 8880 | 64.8 | −46.475 | – | −95.548 | – | 136.897 | 62.3 | 113 | – | –
9 | C/C(=C\c1cccc(COC(=O)N(C)C)c1)[C@H]1OC(=O)C[C@H](O)CC[C@H](C)[C@@H](OC(=O)N2CCN(C)CC2)/C=C/[C@@H]1C [Compound 258, [(2S,3S,4E,6R,7S,10R)-2-[(E)-1-[3-(dimethylcarbamoyloxymethyl)phenyl]prop-1-en-2-yl]-10-hydroxy-3,7-dimethyl-12-oxo-1-oxacyclododec-4-en-6-yl] 4-methylpiperazine-1-carboxylate] | – | – | – | – | 11.7 | > 25000 | 73.8 | −12.669 | – | −65.918 | – | 338.606 | 29.8 | 28.7 | – | –
10 | C/C(=C\c1cc(F)c2nnn(CC3CC3)c2c1)[C@H]1OC(=O)C[C@H](O)CC[C@H](C)[C@@H](OC(=O)N2CCN(C)CC2)/C=C/[C@@H]1C [Compound 137] | – | −81.149 | −86.584 | – | 1.21 | 27.6 | 12.1 | – | – | – | – | – | – | – | 1.17 | 1.61
11 | C/C(=C\c1cc(F)cc(N2CCOCC2)c1)[C@H]1OC(=O)C[C@H](O)CC[C@H](C)[C@@H](OC(=O)N(C)C2CCN(C)CC2)/C=C/[C@@H]1C [Compound 22] | – | −69.453 | −84.195 | – | 5.76 | 876 | 38.8 | – | – | – | – | – | – | – | 12.8 | 11.6
12 | C/C(=C\c1cc(F)c2cnn(CC3CC3)c2c1)[C@H]1OC(=O)C[C@H](O)CC[C@H](C)[C@@H](OC(=O)N2CCN(C)CC2)/C=C/[C@@H]1C [Compound 87, [(2S,3S,4E,6R,7S,10R)-2-[(E)-1-[1-(cyclopropylmethyl)-4-fluoroindazol-6-yl]prop-1-en-2-yl]-10-hydroxy-3,7-dimethyl-12-oxo-1-oxacyclododec-4-en-6-yl] 4-methylpiperazine-1-carboxylate] | – | −85.463 | −79.550 | – | 4.98 | 62.7 | 27 | – | – | – | – | – | – | – | 3.68 | 4.19
